Results as given in ChEMBL document CHEMBL1221178, “Allosteric control of an ionotropic glutamate receptor with an optical switch” (Nat Chem Biol, 2006).
Activity calls are given as the source filed them. The calls are words filed in the database; no cut-off is given here.

Assays:
Format in all cases: functional, cell-based
[1] = system: Glutamate receptor ionotropic, kainate 2 (Homo sapiens), Q13002 [L439C]; test: Agonist activity at MAG conjugated light activated iGluR6 L439C mutant expressed in human HEK293 cells assessed as increase inward currents by whole cell patch clamp method
[2] = system: Glutamate receptor ionotropic, kainate 2 (Homo sapiens), Q13002 [L439C]; test: Agonist activity at iGluR6 L439C mutant expressed in human HEK293 cells assessed as increase in intracellular Ca2+ levels illuminated at 500 nm wavelength by […] staining based fluorimetric method
[3] = system: Glutamate receptor ionotropic, kainate 2 (Homo sapiens), Q13002 [L439C]; test: Agonist activity at iGluR6 L439C mutant expressed in human HEK293 cells assessed as increase in intracellular Ca2+ levels illuminated at 380 nm wavelength by […] staining based fluorimetric method

Glutamate receptor ionotropic, kainate 2 (Homo sapiens), Q13002 [L439C], sequence (Q13002 whole entry L439C): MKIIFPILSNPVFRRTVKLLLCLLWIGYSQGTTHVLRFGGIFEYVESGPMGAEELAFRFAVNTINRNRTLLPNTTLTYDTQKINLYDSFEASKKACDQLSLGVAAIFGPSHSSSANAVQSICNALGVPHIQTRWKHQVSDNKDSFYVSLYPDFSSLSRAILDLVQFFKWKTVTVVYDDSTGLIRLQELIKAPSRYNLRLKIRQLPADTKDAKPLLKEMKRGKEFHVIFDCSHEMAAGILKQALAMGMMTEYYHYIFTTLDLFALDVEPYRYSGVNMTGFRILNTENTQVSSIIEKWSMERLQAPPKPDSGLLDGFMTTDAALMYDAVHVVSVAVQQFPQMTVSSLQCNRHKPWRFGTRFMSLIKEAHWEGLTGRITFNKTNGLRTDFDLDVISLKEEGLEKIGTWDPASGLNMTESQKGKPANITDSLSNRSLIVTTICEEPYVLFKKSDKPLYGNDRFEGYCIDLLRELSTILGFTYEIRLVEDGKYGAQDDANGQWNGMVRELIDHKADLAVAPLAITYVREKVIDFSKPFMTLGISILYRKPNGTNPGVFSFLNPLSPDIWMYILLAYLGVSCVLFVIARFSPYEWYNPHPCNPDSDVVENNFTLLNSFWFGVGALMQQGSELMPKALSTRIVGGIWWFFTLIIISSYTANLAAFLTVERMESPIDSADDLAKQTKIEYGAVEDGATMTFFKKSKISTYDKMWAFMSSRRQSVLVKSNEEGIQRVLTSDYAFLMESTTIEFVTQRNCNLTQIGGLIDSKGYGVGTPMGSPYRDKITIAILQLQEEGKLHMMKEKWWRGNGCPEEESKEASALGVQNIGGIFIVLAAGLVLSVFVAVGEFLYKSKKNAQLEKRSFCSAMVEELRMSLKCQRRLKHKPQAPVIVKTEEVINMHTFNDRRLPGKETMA

Row | SMILES | Activity [1] | Activity [2] | Activity [3]
1 | N[C@@H](CCC(=O)O)C(=O)O | Active | – | –
2 | N[C@@H](C[C@@H](CCCC(=O)NCC(=O)Nc1ccc(/N=N/c2ccc(NC(=O)CN3C(=O)C=CC3=O)cc2)cc1)C(=O)O)C(=O)O | – | inactive | Active
3 | N[C@@H](C[C@@H](CCCC(=O)NCC(=O)Nc1ccccc1)C(=O)O)C(=O)O | Active | – | –
